Experimental data: ChEMBL document CHEMBL3769377, “A synthesis, in silico, in vitro and in vivo study of thieno[2,3-b]pyridine anticancer analogues” (Medchemcomm, 2015)

Columns and labels:
[1] = molecular target: Dual specificity mitogen-activated protein kinase kinase 1 (Homo sapiens) (UniProt Q02750); assay: Inhibition of human recombinant MEK1 assessed as residual activity at 10 uM after 1 hr by qPCR analysis relative to control
[2] = tested on: Epidermal growth factor receptor (Homo sapiens), P00533 [L858R]; assay: Inhibition of human recombinant EGFR L858R mutant assessed as residual activity at 10 uM after 1 hr by qPCR analysis relative to control; format: protein assay
[3] = molecular target: Receptor tyrosine-protein kinase erbB-2 (Homo sapiens) (UniProt P04626); assay: Inhibition of human recombinant ERBB2 assessed as residual activity at 10 uM after 1 hr by qPCR analysis relative to control
[4] = molecular target: Atypical kinase COQ8A, mitochondrial (Homo sapiens) (UniProt Q8NI60); assay: Inhibition of human recombinant ADCK3 assessed as residual activity at 10 uM after 1 hr by qPCR analysis relative to control
[5] = molecular target: cAMP-dependent protein kinase catalytic subunit alpha (Homo sapiens) (UniProt P17612); assay: Inhibition of human recombinant PKACalpha assessed as residual activity at 10 uM after 1 hr by qPCR analysis relative to control
[6] = molecular target: Serine/threonine-protein kinase pim-3 (Homo sapiens) (UniProt Q86V86); assay: Inhibition of human recombinant PIM3 assessed as residual activity at 10 uM after 1 hr by qPCR analysis relative to control
[7] = molecular target: Serine/threonine-protein kinase pim-2 (Homo sapiens) (UniProt Q9P1W9); assay: Inhibition of human recombinant PIM2 assessed as residual activity at 10 uM after 1 hr by qPCR analysis relative to control
[8] = molecular target: Phosphatidylinositol 4-phosphate 3-kinase C2 domain-containing subunit beta (Homo sapiens) (UniProt O00750); assay: Inhibition of human recombinant PIK3C2B assessed as residual activity at 10 uM after 1 hr by qPCR analysis relative to control
[9] = molecular target: Angiopoietin-1 receptor (Homo sapiens) (UniProt Q02763); assay: Inhibition of human recombinant TIE2 assessed as residual activity at 10 uM after 1 hr by qPCR analysis relative to control
Sequence of Angiopoietin-1 receptor (Homo sapiens) (Q02763 whole entry): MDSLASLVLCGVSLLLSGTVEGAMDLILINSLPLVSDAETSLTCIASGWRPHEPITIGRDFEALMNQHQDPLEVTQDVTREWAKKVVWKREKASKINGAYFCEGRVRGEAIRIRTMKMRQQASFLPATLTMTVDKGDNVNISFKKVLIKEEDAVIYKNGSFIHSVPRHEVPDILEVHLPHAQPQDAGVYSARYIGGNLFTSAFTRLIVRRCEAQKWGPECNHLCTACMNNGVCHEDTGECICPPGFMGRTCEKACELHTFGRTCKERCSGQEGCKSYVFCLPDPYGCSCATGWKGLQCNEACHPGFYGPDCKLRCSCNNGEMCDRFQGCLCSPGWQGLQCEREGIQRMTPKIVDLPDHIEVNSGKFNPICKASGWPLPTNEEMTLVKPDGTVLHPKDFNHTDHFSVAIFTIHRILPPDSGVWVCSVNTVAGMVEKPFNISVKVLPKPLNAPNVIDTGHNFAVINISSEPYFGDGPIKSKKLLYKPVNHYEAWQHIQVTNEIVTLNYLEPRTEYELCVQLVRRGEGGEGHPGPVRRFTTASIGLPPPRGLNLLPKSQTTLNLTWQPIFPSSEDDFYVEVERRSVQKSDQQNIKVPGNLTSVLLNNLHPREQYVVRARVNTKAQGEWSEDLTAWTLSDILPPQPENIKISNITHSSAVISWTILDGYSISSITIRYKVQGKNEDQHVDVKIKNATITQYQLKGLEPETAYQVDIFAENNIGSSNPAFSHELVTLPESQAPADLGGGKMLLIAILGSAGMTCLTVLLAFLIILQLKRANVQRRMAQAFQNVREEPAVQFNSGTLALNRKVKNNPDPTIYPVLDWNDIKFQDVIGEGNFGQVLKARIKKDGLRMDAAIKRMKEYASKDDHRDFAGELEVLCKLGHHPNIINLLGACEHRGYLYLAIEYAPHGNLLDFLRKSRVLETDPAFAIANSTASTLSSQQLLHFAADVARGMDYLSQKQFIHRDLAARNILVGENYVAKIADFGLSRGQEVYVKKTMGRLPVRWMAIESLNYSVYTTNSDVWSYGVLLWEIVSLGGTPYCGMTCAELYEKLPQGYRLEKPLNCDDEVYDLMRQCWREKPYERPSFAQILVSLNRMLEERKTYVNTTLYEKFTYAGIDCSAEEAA

[10] = molecular target: Mitogen-activated protein kinase 14 (Homo sapiens) (UniProt Q16539); assay: Inhibition of human recombinant p38alpha assessed as residual activity at 10 uM after 1 hr by qPCR analysis relative to control
Sequence of Mitogen-activated protein kinase 14 (Homo sapiens) (Q16539 whole entry): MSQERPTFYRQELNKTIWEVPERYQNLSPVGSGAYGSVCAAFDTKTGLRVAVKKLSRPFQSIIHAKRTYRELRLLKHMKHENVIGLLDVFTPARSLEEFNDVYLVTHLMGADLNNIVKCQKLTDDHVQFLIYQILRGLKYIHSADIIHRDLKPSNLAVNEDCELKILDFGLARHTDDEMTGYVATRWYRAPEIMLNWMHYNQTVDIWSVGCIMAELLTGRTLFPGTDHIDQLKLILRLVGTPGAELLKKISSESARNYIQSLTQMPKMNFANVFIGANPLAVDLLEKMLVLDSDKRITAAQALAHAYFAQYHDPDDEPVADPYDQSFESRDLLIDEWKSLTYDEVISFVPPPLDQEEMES

[11] = molecular target: Dual specificity tyrosine-phosphorylation-regulated kinase 1B (Homo sapiens) (UniProt Q9Y463); assay: Inhibition of human recombinant DYRK1B assessed as residual activity at 10 uM after 1 hr by qPCR analysis relative to control
Sequence of Dual specificity tyrosine-phosphorylation-regulated kinase 1B (Homo sapiens) (Q9Y463 whole entry, looked up): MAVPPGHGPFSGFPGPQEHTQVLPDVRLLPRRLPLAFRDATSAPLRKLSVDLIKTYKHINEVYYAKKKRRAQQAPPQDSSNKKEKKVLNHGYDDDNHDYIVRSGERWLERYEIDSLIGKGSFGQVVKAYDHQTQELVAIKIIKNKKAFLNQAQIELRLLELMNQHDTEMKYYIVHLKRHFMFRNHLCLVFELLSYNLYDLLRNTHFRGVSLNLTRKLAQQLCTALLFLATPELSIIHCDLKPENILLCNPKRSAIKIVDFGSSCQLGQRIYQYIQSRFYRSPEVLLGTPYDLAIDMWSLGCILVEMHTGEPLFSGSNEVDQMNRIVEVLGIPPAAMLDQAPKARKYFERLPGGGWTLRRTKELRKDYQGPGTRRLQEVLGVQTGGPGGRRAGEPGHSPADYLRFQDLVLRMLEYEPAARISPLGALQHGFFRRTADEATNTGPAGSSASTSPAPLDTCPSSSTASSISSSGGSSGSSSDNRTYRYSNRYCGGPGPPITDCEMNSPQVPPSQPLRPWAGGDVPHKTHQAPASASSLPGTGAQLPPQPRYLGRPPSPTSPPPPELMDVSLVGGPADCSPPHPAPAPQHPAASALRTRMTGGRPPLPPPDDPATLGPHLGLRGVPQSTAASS

[12] = molecular target: Serine/threonine-protein kinase PAK 1 (Homo sapiens) (UniProt Q13153); assay: Inhibition of human recombinant PAK1 assessed as residual activity at 10 uM after 1 hr by qPCR analysis relative to control
Sequence of Serine/threonine-protein kinase PAK 1 (Homo sapiens) (Q13153 whole entry): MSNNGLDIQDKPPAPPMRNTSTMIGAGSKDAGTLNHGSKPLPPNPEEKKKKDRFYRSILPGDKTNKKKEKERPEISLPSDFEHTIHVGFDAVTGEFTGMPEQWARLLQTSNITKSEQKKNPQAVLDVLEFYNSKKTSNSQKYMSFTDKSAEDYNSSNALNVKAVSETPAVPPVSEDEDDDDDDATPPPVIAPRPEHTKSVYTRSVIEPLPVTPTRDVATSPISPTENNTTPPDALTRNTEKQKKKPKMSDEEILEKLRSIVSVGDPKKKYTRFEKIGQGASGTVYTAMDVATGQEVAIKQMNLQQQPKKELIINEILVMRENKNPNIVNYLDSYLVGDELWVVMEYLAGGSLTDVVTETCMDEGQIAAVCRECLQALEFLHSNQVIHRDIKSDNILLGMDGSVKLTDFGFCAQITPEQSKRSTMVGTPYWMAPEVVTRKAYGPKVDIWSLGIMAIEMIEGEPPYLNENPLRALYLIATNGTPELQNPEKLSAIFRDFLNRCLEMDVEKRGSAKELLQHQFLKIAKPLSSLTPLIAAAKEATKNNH

[13] = molecular target: Platelet-derived growth factor receptor beta (Homo sapiens) (UniProt P09619); assay: Inhibition of human recombinant PDGFRB assessed as residual activity at 10 uM after 1 hr by qPCR analysis relative to control
[14] = tested on: Tyrosine-protein kinase ABL1 (Homo sapiens), P00519 [T315I]; assay: Inhibition of human recombinant phosphorylated ABL1 T315I mutant assessed as residual activity at 10 uM after 1 hr by qPCR analysis relative to control
[15] = molecular target: Insulin receptor (Homo sapiens) (UniProt P06213); assay: Inhibition of human recombinant INSR assessed as residual activity at 10 uM after 1 hr by qPCR analysis relative to control
[16] = molecular target: Casein kinase I isoform gamma-2 (Homo sapiens) (UniProt P78368); assay: Inhibition of human recombinant CSNK1G2 assessed as residual activity at 10 uM after 1 hr by qPCR analysis relative to control
[17] = molecular target: Serine/threonine-protein kinase PAK 2 (Homo sapiens) (UniProt Q13177); assay: Inhibition of human recombinant PAK2 assessed as residual activity at 10 uM after 1 hr by qPCR analysis relative to control
[18] = molecular target: Aurora kinase B (Homo sapiens) (UniProt Q96GD4); assay: Inhibition of human recombinant AURKB assessed as residual activity at 10 uM after 1 hr by qPCR analysis relative to control
[19] = molecular target: Dual specificity mitogen-activated protein kinase kinase 2 (Homo sapiens) (UniProt P36507); assay: Inhibition of human recombinant MEK2 assessed as residual activity at 10 uM after 1 hr by qPCR analysis relative to control
Sequence of Dual specificity mitogen-activated protein kinase kinase 2 (Homo sapiens) (P36507 whole entry): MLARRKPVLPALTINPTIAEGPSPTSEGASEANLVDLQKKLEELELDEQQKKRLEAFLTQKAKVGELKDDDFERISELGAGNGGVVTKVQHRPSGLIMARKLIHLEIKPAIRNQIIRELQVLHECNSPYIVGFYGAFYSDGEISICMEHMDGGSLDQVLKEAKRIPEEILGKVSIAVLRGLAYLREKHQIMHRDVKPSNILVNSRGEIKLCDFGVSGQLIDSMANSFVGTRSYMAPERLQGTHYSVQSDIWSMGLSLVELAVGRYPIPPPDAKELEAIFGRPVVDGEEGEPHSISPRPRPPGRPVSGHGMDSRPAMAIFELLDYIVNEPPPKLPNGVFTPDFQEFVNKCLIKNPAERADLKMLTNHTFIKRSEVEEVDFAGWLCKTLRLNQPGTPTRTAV

[20] = molecular target: Proto-oncogene tyrosine-protein kinase receptor Ret (Homo sapiens) (UniProt P07949); assay: Inhibition of human recombinant RET assessed as residual activity at 10 uM after 1 hr by qPCR analysis relative to control
[21] = molecular target: Serine/threonine-protein kinase DCLK1 (Homo sapiens) (UniProt O15075); assay: Inhibition of human recombinant DCAMKL1 assessed as residual activity at 10 uM after 1 hr by qPCR analysis relative to control
[22] = molecular target: Tyrosine-protein kinase ABL1 (Homo sapiens) (UniProt P00519); assay: Inhibition of human recombinant phosphorylated ABL1 assessed as residual activity at 10 uM after 1 hr by qPCR analysis relative to control
[23] = molecular target: Serine/threonine-protein kinase RIO2 (Homo sapiens) (UniProt Q9BVS4); assay: Inhibition of human recombinant RIOK2 assessed as residual activity at 10 uM after 1 hr by qPCR analysis relative to control
[24] = molecular target: RAF proto-oncogene serine/threonine-protein kinase (Homo sapiens) (UniProt P04049); assay: Inhibition of human recombinant RAF1 assessed as residual activity at 10 uM after 1 hr by qPCR analysis relative to control
[25] = molecular target: Mitogen-activated protein kinase 3 (Homo sapiens) (UniProt P27361); assay: Inhibition of human recombinant ERK1 assessed as residual activity at 10 uM after 1 hr by qPCR analysis relative to control
[26] = molecular target: Proto-oncogene tyrosine-protein kinase Src (Homo sapiens) (UniProt P12931); assay: Inhibition of human recombinant SRC assessed as residual activity at 10 uM after 1 hr by qPCR analysis relative to control
[27] = molecular target: Cyclin-dependent kinase 3 (Homo sapiens) (UniProt Q00526); assay: Inhibition of human recombinant CDK3 assessed as residual activity at 10 uM after 1 hr by qPCR analysis relative to control
Sequence of Cyclin-dependent kinase 3 (Homo sapiens) (Q00526 whole entry, looked up): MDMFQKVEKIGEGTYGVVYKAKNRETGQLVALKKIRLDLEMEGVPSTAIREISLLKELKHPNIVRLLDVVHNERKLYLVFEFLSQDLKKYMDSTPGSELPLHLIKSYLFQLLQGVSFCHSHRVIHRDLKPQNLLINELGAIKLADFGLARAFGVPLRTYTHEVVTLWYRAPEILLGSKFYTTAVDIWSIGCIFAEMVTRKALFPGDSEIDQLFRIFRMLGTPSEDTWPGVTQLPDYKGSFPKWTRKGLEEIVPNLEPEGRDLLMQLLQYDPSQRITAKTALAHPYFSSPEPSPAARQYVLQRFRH

[28] = molecular target: Serine/threonine-protein kinase PLK4 (Homo sapiens) (UniProt O00444); assay: Inhibition of human recombinant PLK4 assessed as residual activity at 10 uM after 1 hr by qPCR analysis relative to control
Sequence of Serine/threonine-protein kinase PLK4 (Homo sapiens) (O00444 whole entry): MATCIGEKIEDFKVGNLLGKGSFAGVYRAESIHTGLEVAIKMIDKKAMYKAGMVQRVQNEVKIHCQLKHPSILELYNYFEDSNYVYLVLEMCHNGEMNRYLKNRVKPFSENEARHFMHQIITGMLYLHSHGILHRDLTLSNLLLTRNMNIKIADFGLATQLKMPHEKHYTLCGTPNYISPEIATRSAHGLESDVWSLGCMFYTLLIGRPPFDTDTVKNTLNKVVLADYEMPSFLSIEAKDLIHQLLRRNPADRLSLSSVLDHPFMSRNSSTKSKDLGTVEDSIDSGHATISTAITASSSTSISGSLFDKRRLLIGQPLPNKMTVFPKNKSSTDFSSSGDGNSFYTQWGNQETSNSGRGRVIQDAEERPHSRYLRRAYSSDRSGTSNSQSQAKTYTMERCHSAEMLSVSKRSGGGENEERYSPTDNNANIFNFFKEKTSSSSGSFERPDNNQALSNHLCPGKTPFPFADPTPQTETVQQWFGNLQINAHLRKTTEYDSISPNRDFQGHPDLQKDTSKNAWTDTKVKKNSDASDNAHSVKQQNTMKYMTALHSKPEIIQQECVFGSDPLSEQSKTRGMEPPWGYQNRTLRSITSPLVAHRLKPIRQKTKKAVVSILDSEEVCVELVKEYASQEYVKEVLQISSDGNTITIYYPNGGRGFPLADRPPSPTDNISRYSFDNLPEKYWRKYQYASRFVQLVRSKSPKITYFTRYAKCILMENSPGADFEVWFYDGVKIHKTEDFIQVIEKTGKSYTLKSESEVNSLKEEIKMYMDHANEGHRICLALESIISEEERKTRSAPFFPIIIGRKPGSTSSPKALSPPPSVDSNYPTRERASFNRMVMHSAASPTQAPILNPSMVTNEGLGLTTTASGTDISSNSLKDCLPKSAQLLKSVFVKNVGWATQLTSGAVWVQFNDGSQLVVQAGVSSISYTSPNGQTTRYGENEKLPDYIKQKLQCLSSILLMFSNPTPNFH

[29] = molecular target: Mast/stem cell growth factor receptor Kit (Homo sapiens) (UniProt P10721); assay: Inhibition of human recombinant KIT assessed as residual activity at 10 uM after 1 hr by qPCR analysis relative to control
[30] = molecular target: Cyclin-dependent kinase 9 (Homo sapiens) (UniProt P50750); assay: Inhibition of human recombinant CDK9 assessed as residual activity at 10 uM after 1 hr by qPCR analysis relative to control

Sequence of Dual specificity mitogen-activated protein kinase kinase 1 (Homo sapiens) (Q02750 whole entry): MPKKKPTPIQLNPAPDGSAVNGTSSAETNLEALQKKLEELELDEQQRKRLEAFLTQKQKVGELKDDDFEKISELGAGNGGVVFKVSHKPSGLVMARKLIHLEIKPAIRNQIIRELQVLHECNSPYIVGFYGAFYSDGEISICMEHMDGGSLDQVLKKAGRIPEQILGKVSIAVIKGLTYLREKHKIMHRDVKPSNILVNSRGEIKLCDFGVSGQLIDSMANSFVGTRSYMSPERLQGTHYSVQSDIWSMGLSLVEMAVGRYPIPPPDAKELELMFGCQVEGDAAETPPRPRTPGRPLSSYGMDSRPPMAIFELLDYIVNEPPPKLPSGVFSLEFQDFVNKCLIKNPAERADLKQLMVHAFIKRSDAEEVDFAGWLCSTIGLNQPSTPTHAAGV

Q: Which Activity [1] does the source give for `Cc1c(Cl)cccc1NC(=O)c1sc2nc3c(cc2c1N)C(=O)CC3` here?
A: 100%

Q: And the Activity [2]?
A: 92%

Q: What about the Activity [3] of the same compound?
A: 100%

Q: What about the Activity [4] of the same compound?
A: 96%

Q: What about the Activity [5] of the same compound?
A: 94%

Q: What about the Activity [6] of the same compound?
A: 92%

Q: And the Activity [7]?
A: 80%

Q: What about the Activity [8] of the same compound?
A: 100%

Q: What about the Activity [9] of the same compound?
A: 100%

Q: What about the Activity [10] of the same compound?
A: 100%

Q: What about the Activity [11] of the same compound?
A: 57%

Q: And the Activity [12]?
A: 87%

Q: What about the Activity [13] of the same compound?
A: 95%

Q: What about the Activity [14] of the same compound?
A: 90%

Q: And the Activity [15]?
A: 97%

Q: And the Activity [16]?
A: 97%

Q: What about the Activity [17] of the same compound?
A: 95%

Q: What about the Activity [18] of the same compound?
A: 92%

Q: What about the Activity [19] of the same compound?
A: 98%

Q: And the Activity [20]?
A: 100%

Q: And the Activity [21]?
A: 100%

Q: And the Activity [22]?
A: 100%

Q: And the Activity [23]?
A: 43%

Q: What about the Activity [24] of the same compound?
A: 100%

Q: And the Activity [25]?
A: 98%

Q: What about the Activity [26] of the same compound?
A: 95%

Q: And the Activity [27]?
A: 100%

Q: And the Activity [28]?
A: 100%

Q: What about the Activity [29] of the same compound?
A: 95%

Q: And the Activity [30]?
A: 100%
